Experimental data as given in ChEMBL document CHEMBL1136167, “Prediction of hERG potassium channel affinity by traditional and hologram qSAR methods” (Bioorg Med Chem Lett, 2003).

How the values were obtained:
[1] = target: T1, Voltage-gated inwardly rectifying potassium channel KCNH2 (Homo sapiens, UniProt Q12809); assay: Inhibition of human Potassium channel HERG expressed in mammalian cells
[2] = target: T1, Voltage-gated inwardly rectifying potassium channel KCNH2; assay: Inhibition of K+ channel activity in mammalian cells expressing HERG Kv11.1; assay type: cell-based

T1 sequence (Q12809 whole entry): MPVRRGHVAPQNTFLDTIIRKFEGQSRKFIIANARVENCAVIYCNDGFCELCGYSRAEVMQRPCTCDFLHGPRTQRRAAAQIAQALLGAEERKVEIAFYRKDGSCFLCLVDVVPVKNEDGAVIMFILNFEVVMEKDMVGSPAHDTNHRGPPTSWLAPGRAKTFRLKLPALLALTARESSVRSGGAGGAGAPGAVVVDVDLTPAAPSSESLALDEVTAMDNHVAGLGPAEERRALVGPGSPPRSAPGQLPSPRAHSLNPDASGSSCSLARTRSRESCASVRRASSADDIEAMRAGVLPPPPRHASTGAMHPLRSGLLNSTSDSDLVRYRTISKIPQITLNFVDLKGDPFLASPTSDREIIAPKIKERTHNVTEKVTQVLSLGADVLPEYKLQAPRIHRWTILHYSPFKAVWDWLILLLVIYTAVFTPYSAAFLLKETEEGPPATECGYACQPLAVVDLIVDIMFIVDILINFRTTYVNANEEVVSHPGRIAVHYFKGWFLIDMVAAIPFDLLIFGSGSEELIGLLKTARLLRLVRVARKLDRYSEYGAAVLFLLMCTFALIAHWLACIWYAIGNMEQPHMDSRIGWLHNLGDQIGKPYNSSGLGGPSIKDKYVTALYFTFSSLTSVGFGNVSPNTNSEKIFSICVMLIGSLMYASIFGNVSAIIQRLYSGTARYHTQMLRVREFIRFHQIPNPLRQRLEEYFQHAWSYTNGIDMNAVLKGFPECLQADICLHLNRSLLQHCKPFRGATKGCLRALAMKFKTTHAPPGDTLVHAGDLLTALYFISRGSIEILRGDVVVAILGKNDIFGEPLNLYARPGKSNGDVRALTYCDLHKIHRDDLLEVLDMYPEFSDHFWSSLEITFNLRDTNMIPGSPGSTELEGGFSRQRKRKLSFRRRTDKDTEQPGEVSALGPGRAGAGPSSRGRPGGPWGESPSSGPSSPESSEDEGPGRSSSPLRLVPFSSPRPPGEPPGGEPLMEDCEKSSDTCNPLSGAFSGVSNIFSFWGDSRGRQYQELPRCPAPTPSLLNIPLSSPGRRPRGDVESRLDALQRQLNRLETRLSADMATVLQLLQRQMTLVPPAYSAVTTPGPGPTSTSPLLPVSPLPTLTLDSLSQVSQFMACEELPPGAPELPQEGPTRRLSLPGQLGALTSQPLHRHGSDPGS

| Structure (SMILES) | IC50 [1] [µM] | IC50 [2] [µM] | pIC50 ([1]; human) |
| --- | --- | --- | --- |
| C[C@@H]1CN(c2c(F)c(N)c3c(=O)c(C(=O)O)cn(C4CC4)c3c2F)C[C@H](C)N1 [SPARFLOXACIN] | 18.2 |  |  |
| CN1CCC[C@H]1c1cccnc1 [NICOTINE] | 245 |  |  |
| COc1c(N2CCNC(C)C2)c(F)cc2c(=O)c(C(=O)O)cn(C3CC3)c12 (centres undefined) [GATIFLOXACIN] | 129 |  |  |
| COc1ccc(C2CCN(CC[C@H]3CCOc4ccccc43)CC2)cc1OC [TERIKALANT] | 0.251 |  |  |
| Oc1ccc(CCN2CCC(Nc3nc4ccccc4n3Cc3ccc(F)cc3)CC2)cc1 [DESMETHEYLASTEMIZOLE] | 0.001 |  |  |
| COc1ccc(C(=O)N2CCN(c3ccc4c(c3)CCC(=O)N4)CC2)cc1OC [VESNARINONE] | 1.1 |  |  |
| CCOC(=O)C1=C(C)NC(C)=C(C(=O)OC)C1c1cccc([N+](=O)[O-])c1 (centres undefined) [NITRENDIPINE] | 10 |  |  |
| Cc1cc2c(s1)Nc1ccccc1N=C2N1CCN(C)CC1 [OLANZAPINE] | 0.182 |  |  |
| COc1ccc(C2CCN(CCC3CCOc4ccccc43)CC2)cc1OC (centres undefined) | 0.2 |  |  |
| CN(c1nccc(=O)[nH]1)C1CCN(c2nc3ccccc3n2Cc2ccc(F)cc2)CC1 [MIZOLASTINE] | 0.437 |  |  |
| CC[C@H]1OC(=O)[C@H](C)[C@@H](O[C@H]2C[C@@](C)(OC)[C@@H](O)[C@H](C)O2)[C@H](C)[C@@H](O[C@@H]2O[C@H](C)C[C@H](N(C)C)[C@H]2O)[C@](C)(OC)C[C@@H](C)C(=O)[C@H](C)[C@@H](O)[C@]1(C)O [CLARITHROMYCIN] | 58.9 | 33.1 |  |
| O=C(O[C@H]1C[C@@H]2C[C@@H]3C[C@@H](C1)N2CC3=O)C1CNc2ccccc21 (some centres undefined) | 5.89 |  |  |
